Laboratory results reported in PMC11404609, “Gut microbiota-mediated C-sulfonate metabolism impairs the bioavailability and anti-cholestatic efficacy of andrographolide” (Gut Microbes, 2024).

Key:
[1] = Tissue distribution of AP and APM in rats; type: in vivo; details: ABX-treated rats vs Control, AP 120 mg/kg oral
Method: Control and ABX rats were orally administered a single dose of AP at 120 mg/kg. Control, ABX and germ-free C57BL/6J mice were orally administered a single dose of AP at 100 mg/kg. After 90 min of AP administration, all animals were euthanized, and blood and tissue samples were collected for subsequent analysis.
An ACQUITY^TM UPLC-MS/MS system equipped with an ACQUITY^TM UPLC BEH C18 Column (50 × 2.1 mm I.D., 1.7 μm, Waters, Milford, MA, USA) was utilized for the quantification of AP and APM as previously described.[47] Briefly, the detection samples (50 μL) were mixed with 50 μL of IS (50 ng/mL). AP and APM were extracted by 400 μL cold methanol. Supernatants were dried under nitrogen stream. Then, the residue was dissolved with 50% methanol in water, centrifuged for 30 min at 13,000 rpm, and 10 µL of the supernatant was subjected to UPLC-MS/MS analysis. The mobile phases consisted of eluent A (water) and eluent B (methanol) with a gradient elution as follows: 0–0.8 min, 10% B; 0.8–1.2 min, 10–90% B; 1.2–5.0 min, 90% B; 5.0–5.5 min, 90–10% B; 5.5–7.0 min, 10% B. The flow rate was 0.3 mL/min and the injection volume of all samples was 10 μL. The quantification of AP, APM and IS was performed by UPLC-MS/MS using an MRM method with the transitions of m/z 349.1→m/z 287.2 for AP, m/z 413.2→m/z 287.2 for APM, m/z 269→m/z 133 for IS.
AP was administered intravenously and orally to detect the production of the C-sulfonate metabolite APM. In tissue distribution experiment, rats were given AP intravenously (24 mg/kg) or orally (120 mg/kg), while mice received AP intravenously (20 mg/kg) or orally (100 mg/kg). After a 90-minute interval, the animals were sacrificed, and their liver, kidneys, small intestine, and colon were collected for analysis. In pharmacokinetic studies, rats were administered 24 mg/kg of AP intravenously or 120 mg/kg of AP by oral gavage. Blood samples were collected at predetermined time intervals (0, 5, 10, 20, 30, 40, 60, 90, 120, 180, 240, 360, and 480 min), as described, to detect the content of AP and APM by UPLC-MS/MS.

[2] = tested on: FXR downstream bile acid transporters; experiment: Expression of FXR downstream bile acid transporters in liver (qPCR, Western blot); type: in vivo, mice; details: AP 200 mg/kg i.p.
Method: Total RNA from frozen livers of Vehicle, AP (200 mg/kg, i.p.), ANIT (50 mg/kg), and ANIT+AP (200 mg/kg, i.p.) groups was extracted using the Animal Total RNA Isolation Kit (FOREGENE, China). cDNA was synthesized using a Color Reverse Transcription Kit (EZBioscience, Roseville, CA, USA). qPCR was performed using SYBR green/Rox qPCR master mix (EZBioscience, Roseville, CA, USA), according to the manufacturer’s instruction. The expression of target genes was normalized to β-actin, and fold changes were calculated using 2^–ΔΔCT method. For bacterial identification, genomic DNA of fecal flora was isolated using the TIANamp Stool DNA Kit (TIANGEN, Beijing, China) and qPCR was performed. The relative abundance and expression of Desulfovibrio spp., D. piger and APS reductase were normalized to the amounts of total bacteria (16S). All primers were synthesized by Tsingke Biotechnology Co., Ltd. (Beijing, China) and were listed in Supplementary Table S1.
Liver tissue from Vehicle, AP (200 mg/kg, i.p.), ANIT (50 mg/kg), and ANIT+AP (200 mg/kg, i.p.) groups was homogenized in RIPA buffer (Thermo Scientific). […] The collected supernatant was quantified using BCA protein assay kit (Epizyme). […] To visualize the protein bands, the membrane was reacted with Immobilon Forte Western HRP (Millipore) substrate solution for 2 min and analyzed using Tanon5200 imager. […]

intestinal flora of mice = experiment: Co-culturing AP with cecum samples from mice; type: in vitro ADME; details: AP 10 μg/mL, anaerobic, 37°C, 6 h
Method: The cecum contents from mice were collected and mixed with sterilized anaerobic medium in a ratio of 1.0 g to 10 mL, with gentle agitation. After filtered, the mixed medium containing the intestinal flora was placed in an anaerobic environment and preincubated at 37°C for 30 min before use. Mixed medium with or without APS reductase inhibitor bromocriptine mesylate (20 μg/mL) was incubated with AP (10 μg/mL), while autoclaved mixed medium without APS reductase inhibitor served as the control. Incubation was performed in a shaking incubator at 37°C for 6 h, with strict maintenance of anaerobic condition throughout the process.[44] Similarly, D. piger (0.2 mL, 1 × 10^8 CFU/mL) with or without inhibitor, was incubated with AP for 0, 3, 6, and 12 h, with autoclaved D. piger without inhibitor serving as the control. The reaction was terminated by adding cold methanol contained IS. And then samples were analyzed by UPLC-MS/MS to detect the concentrations of AP and APM. Concentrations of APS reductase and HSO3^− were also determined at the end of incubation.
For the determination of APS reductase concentration, the supernatant from mouse cecum contents and the D. piger strain were assessed using microorganism APS reductase elisa assay kit (Shanghai Senxingyan Biotechnology Co., Ltd., China), following the instructions provided with the kit. For the determination of HSO3^− concentration, cecum contents from mice or rats were weighed and homogenized in five volumes of normal saline (based on tissue weight). The homogenate was then subjected to centrifugation at 13,000 rpm and 4°C for 15 min. The supernatant (or perfusate) was collected and mixed with 0.2% formaldehyde, 0.05% basic fuchsin, and 0.01% EDTA-Na2 in a ratio of 1:1:1:9 under acidic conditions. To establish a standard curve, different concentrations of NaHSO3 were used. Subsequently, the absorbance of the resulting solutions was measured at a wavelength of 560 nm after 40 min.

levels of AP in plasma and tissues [1]: elevated levels
conversion of AP into APM by the intestinal flora (intestinal flora of mice): notable conversion
SMILES: C=C1CC[C@@H]2[C@](C)(CO)[C@H](O)CC[C@@]2(C)[C@@H]1C/C=C1/C(=O)OC[C@H]1O [AP, Andrographolide]
expression of FXR downstream bile acid transporters (Mrp2, Mrp3, Mrp4, Oatp1, and Ntcp, except for Bsep, Ost-α and Ost-β) [2]: heightened the expression
